Measurements from PMC8716817 (Frontiers in Pharmacology, 2021).

Legend:
[1] = target: T1, NaV1.8 (Rattus norvegicus, UniProt Q62968); format: cell-based
T1 construct: gene Scn10a

[2] = target: T2, NaV1.7 (Rattus norvegicus, UniProt O08562); test: whole-cell patch clamp, stable NaV1.[…] HEK cells (vincristine pre-incubated); format: cell-based
T2 construct: gene Scn9a
T2 sequence (O08562 whole entry): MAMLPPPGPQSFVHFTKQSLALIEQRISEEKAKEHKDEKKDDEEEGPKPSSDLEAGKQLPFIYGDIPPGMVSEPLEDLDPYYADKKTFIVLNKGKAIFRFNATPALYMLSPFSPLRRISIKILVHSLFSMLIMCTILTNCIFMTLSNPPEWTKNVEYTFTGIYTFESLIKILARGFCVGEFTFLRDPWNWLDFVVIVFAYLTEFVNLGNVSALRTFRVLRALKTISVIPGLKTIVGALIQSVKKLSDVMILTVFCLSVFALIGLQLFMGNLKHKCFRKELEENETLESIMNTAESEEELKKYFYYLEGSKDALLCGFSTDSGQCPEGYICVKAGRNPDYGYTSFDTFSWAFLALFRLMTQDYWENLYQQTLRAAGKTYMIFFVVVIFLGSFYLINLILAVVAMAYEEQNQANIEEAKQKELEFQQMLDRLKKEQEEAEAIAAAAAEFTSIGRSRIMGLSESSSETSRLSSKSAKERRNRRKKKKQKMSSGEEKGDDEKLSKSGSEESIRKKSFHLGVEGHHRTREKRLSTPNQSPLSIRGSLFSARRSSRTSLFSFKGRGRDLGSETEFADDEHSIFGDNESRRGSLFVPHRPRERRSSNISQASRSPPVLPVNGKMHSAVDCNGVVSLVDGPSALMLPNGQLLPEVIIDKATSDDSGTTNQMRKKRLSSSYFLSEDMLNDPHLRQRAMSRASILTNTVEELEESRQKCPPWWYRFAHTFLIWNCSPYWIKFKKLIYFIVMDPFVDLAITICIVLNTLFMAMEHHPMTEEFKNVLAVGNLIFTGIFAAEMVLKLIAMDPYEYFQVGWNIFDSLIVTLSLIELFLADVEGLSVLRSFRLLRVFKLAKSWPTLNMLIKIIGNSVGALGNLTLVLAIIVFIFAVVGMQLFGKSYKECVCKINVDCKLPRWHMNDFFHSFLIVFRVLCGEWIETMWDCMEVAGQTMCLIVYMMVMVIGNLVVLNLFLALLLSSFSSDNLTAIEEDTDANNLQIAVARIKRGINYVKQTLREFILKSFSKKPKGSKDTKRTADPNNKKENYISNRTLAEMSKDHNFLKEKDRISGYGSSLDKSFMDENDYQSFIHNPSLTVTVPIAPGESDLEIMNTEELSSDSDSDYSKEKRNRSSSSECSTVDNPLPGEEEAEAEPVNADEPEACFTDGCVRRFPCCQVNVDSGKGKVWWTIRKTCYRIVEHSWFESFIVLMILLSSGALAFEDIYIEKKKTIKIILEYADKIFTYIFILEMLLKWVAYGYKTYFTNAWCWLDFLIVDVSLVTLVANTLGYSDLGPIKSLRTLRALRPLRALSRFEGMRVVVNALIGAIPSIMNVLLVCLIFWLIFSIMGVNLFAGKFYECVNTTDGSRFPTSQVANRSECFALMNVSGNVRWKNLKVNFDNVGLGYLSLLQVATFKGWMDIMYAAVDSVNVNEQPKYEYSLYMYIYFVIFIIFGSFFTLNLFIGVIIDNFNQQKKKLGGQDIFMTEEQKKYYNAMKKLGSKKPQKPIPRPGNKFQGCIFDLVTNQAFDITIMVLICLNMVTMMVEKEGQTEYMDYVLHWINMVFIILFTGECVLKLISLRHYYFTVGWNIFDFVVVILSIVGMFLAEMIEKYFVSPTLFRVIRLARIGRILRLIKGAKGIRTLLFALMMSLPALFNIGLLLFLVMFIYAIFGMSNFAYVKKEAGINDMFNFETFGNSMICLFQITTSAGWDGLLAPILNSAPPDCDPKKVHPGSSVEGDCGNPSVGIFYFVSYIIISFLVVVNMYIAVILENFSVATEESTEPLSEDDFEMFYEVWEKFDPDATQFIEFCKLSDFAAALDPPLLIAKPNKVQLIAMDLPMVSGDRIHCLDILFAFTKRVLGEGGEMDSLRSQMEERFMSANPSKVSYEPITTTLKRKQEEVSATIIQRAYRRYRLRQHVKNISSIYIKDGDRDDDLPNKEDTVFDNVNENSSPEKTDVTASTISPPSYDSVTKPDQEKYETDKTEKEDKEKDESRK

T1 sequence (Q62968 whole entry): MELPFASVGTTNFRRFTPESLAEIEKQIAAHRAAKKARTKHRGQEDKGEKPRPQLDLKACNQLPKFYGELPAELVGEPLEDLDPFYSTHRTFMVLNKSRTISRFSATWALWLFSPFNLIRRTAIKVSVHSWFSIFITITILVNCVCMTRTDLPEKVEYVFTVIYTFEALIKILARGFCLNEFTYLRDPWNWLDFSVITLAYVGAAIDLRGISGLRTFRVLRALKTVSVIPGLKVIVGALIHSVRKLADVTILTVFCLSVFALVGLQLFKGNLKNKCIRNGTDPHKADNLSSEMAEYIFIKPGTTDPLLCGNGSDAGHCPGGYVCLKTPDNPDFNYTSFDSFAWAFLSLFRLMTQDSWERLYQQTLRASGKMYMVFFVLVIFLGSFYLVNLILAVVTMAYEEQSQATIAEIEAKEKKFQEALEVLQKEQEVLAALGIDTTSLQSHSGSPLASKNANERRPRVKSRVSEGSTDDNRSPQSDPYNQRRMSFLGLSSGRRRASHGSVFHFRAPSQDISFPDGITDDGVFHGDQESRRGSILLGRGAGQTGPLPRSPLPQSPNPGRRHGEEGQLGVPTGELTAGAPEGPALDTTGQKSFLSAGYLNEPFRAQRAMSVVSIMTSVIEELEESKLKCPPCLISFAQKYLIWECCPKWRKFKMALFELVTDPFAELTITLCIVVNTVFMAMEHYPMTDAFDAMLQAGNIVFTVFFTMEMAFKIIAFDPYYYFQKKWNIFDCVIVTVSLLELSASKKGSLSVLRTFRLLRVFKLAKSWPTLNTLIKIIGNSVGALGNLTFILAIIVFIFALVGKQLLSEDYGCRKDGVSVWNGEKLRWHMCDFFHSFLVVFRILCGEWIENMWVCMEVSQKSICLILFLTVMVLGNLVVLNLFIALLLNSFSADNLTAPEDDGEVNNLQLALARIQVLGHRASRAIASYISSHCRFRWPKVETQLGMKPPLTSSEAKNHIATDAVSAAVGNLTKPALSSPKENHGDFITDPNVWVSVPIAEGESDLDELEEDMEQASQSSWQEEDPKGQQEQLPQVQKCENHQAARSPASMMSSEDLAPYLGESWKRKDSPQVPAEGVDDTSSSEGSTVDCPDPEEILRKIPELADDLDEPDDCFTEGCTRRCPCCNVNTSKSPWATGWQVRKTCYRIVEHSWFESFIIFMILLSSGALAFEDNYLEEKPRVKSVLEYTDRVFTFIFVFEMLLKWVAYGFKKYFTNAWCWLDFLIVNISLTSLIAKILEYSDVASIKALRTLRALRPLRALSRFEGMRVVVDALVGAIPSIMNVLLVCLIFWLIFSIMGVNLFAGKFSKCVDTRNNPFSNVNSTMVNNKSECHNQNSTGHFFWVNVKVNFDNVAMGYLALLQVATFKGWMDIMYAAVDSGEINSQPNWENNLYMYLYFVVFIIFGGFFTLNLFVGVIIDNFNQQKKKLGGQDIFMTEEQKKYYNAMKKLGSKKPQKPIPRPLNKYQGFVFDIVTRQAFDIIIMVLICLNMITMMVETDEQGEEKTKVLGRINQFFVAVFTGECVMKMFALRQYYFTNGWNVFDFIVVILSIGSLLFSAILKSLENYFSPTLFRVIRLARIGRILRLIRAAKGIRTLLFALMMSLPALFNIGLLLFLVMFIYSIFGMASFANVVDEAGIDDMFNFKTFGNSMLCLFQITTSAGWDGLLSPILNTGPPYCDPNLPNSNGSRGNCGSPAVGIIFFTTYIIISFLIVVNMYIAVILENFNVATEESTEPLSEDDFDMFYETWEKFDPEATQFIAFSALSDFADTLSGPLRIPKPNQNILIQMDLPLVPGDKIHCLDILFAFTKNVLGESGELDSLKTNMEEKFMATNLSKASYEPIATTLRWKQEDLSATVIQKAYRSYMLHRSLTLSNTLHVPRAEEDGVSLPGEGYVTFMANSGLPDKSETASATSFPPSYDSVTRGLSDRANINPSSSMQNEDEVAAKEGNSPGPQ

OCc1ccc(O[C@@H]2O[C@H](CO)[C@@H](O)[C@H](O)[C@H]2O)cc1 [GAS, Gastrodin]
IC50 [1]: 67.5 ± 20.7 µM | IC50 [2]: 25.9 ± 0.98 µM
